Like-named read-outs stand apart in the source and are kept apart here.
Tests used:
[1] = target: T1, CSAID binding protein (CSBP) in THP.1 cytosol (Homo sapiens, UniProt Q16539); assay: CSAID binding assay with 3H-Compound I and THP.1 cytosol
T1 construct: endogenous in cells; host or cells: THP.1 (ATCC TIB 202), cytosolic fraction (100,000 x g supernatant)

[2] = tested on: IL-1 production in human monocytes; assay: CSAIDs bioassay (IL-1 dependent EL-4/IL2 induction assay, LPS-stimulated human monocytes); format: cell-based; details: Monocyte
Procedure: The biological assay employed to evaluate CSAIDs activity was the IL-1 dependent EL-4/IL2 induction assay (Simon, P. L. et al., J. Immuno. Meth. 84: 85-94 (1985)). Briefly, Human monocytes were plated in 24-well plates in LPS-free RPMI 1640 media containing 1% human AB serum at a concentration of 10^6 per millilitre per well and allowed to adhere for 1 h at 37° C.; non-adherent cells were removed by gentle washing. Test compounds or media were added to the cells 0 or 1 h before the addition of bacterial lipopolysaccharide (E. coli 001:B4; Difco, Detroit) at 10 ng/ml. The cultures were then incubated at various intervals as indicated at 37° C. in a humidified 5% CO2 atmosphere. At the end of the incubation period, culture supernatants were collected. The residual adherent monocytes were lysed in a buffer containing 0.15M octyl-glucopyranoside, 25 mM Hepes, and 0.5 mM phenylmethylsulfonylfluoride in saline. Both supernatants and cell lysates were clarified by centrifugation and assayed for IL-1 activity.
IL-1 activity was measured by its ability to stimulate the secretion of IL-2 by EL-4 (ATCC TIB181) cells in the presence of A23187 ionophore. Serial dilutions of the samples were incubated with 10^5 EL-4 cells in the presence of 2×10^−7 M calcium ionophore A23187. After overnight incubation, 0.1 ml of a cell-free supernatant from each culture was taken and incubated with 10^4 IL-2-dependent […] (ATCC-T11B214) cells. Following an additional 20 hours of incubation, the cultures were pulsed with 1 μCi of tritiated thymidine for 4 h. The cells were then harvested onto glass-fibre filters and the radioactivity deterrnined by liquid scintillation counting.

[3] = Table II, read-out: IC50 in competitive CSAID binding assay

T1 sequence (Q16539 whole entry): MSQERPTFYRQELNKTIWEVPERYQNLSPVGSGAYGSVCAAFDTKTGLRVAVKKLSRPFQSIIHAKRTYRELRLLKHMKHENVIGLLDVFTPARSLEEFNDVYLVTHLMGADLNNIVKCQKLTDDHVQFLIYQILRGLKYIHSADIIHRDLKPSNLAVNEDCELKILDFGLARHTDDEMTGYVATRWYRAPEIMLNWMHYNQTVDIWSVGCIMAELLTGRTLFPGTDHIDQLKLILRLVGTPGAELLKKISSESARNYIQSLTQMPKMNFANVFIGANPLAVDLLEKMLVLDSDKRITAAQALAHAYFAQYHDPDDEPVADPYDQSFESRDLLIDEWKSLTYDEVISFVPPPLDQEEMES

Row | SMILES | IC50 ([2]; read-out: IC50 in the bioassay) [nM] | IC50 [1, 3] [nM] | other results
1 | [N-]=[N+]=Nc1ccc(-c2nc(-c3cccc([125I])c3)c(-c3ccncc3)[nH]2)cc1 [Compound IV, 4-[2-(4-azidophenyl)-5-(3-^125Iodo-phenyl)-1H-imidazol-4-yl]pyridine] |  |  | IC50 ([1]; read-out: IC50 in a competitive binding assay): 500 to 800 nM; IC50 ([2]; read-out: IC50 in a CSAIDs bioassay): 3000 nM
2 | CCc1nc(-c2ccc(OC)cc2)[nH]c1-c1ccncc1 [Compound VIII] | > 5000 |  | 
3 | N#Cc1ccc(-c2nc(-c3ccc(F)cc3)c(-c3ccnc4ccccc34)n2O)cc1 [Compound VII] | 20 |  | 
4 | CC(Cc1ccc(O)c(O)c1)C(C)Cc1ccc(O)c(O)c1 (stereo not drawn) [NDGA] |  | 154000 | 
5 | NC(=O)N1C(=O)/C(=C(\O)c2cccs2)c2cc(Cl)ccc21 [Tenidap] |  | 139000 | 
